logD data for 18 molecules are collected here from the SangsterLogP compilation.

For orientation: logD means lipophilicity at a set pH, counting ionised and neutral species. Low readings indicate a more hydrophilic compound, high ones a more lipophilic compound.

This data set is described as follows: method code SF-AS, from DOI: 10.1016/j.ejmech.2011.01.053, PMID: 21334792. The settings on record: pH 7.4.

In turn, `CC(=O)ON=C1c2ccccc2-c2c1c(C1C=CN=C1)nc1ccc(Br)cc21` (stereo not drawn) had a pH-dependent lipophilicity (logD) of 1.11.
In the case of `CC1(OC(=O)CC(F)(F)F)c2ccccc2-c2c1c(-n1ccnc1)nc1ccc(Br)cc21` (stereo not drawn) it was 1.83; in that of `ON=C1c2ccccc2-c2c1c(C1C=CN=C1)nc1ccc(Br)cc21` (stereo not drawn), 0.23; in that of `CC(C)(C)OC(=O)N1CCCC1C(=O)O/N=C1\c2ccccc2-c2c1c(-n1ccnc1)nc1ccc(Br)cc21` (stereo not drawn), 1.28.
`CN(C)C(=O)ON=C1c2ccccc2-c2c1c(N1CCN(c3ccccn3)CC1)nc1ccc(Br)cc21` registered a logD of 2.34.
In the case of `CC(C)(C)OC(=O)NC(Cc1cccc(F)c1)ON=C1c2ccccc2-c2c1c(N1CCN(c3ccccn3)CC1)nc1ccc(Br)cc21` (stereo not drawn), the logD amounted to 1.14.
`CCCCCC(=O)ON=C1c2ccccc2-c2c1c(N1CCN(c3ccc[nH]3)CC1)nc1ccc(Br)cc21`: the logD is 2.06.
In turn, `CC(C)(C)OC(=O)NCC(=O)ON=C1c2ccccc2-c2c1c(N1CCN(c3ccccn3)CC1)nc1cccc(Br)c21` came in with a logD of 0.7.
In the case of `CCCCCC(=O)ON=C1c2ccccc2-c2c1c(C1C=CN=C1)nc1ccc(Br)cc21` (stereo not drawn) it was 2.11.
`O=C(C=Cc1ccco1)ON=C1C2=C(c3ccccc31)c1c(Br)cccc1NC2N1CCN(c2ccccn2)CC1` (stereo not drawn) came in with a logD of 1.43.
Consider `CC(C)(C)C(=O)NC(C(=O)ON=C1c2ccccc2-c2c1c(N1CCN(c3ccccn3)CC1)nc1ccc(Br)cc21)C(C)(C)C` (stereo not drawn), for which the logD is 1.5.
`CCCC(=O)O/N=C1\c2ccccc2-c2c1c(-n1ccnc1)nc1ccc(Br)cc21` came in with a log distribution coefficient (logD) of 1.17.
In the case of `CC(=O)NCC(=O)ON=C1c2ccccc2-c2c1c(N1CCN(c3ccccn3)CC1)nc1ccc(Br)cc21`, the logD came to 1.18.
For `CCCCC(=O)ON=C1c2ccccc2-c2c1c(C1C=CN=C1)nc1ccc(Br)cc21` (stereo not drawn), the logD turned out to be 1.64.
The molecule `CCC(=O)ON=C1c2ccccc2-c2c1c(N1CCN(c3ccccn3)CC1)nc1ccc(Br)cc21` registered a logD of 2.65.
In the case of `O=C(CCCCBr)ON=C1c2ccccc2-c2c1c(N1CCN(c3ccccn3)CC1)nc1ccc(Br)cc21` it was 1.47; in that of `CC1(O)c2ccccc2-c2c1c(-n1ccnc1)nc1ccc(Br)cc21` (stereo not drawn), 1.73; in that of `CCCCCCC(=O)ON=C1c2ccccc2-c2c1c(C1C=CN=C1)nc1ccc(Br)cc21` (stereo not drawn), 1.51.
